Source: PubChem BioAssay AID1918940 (Molecular Pharmacology Branch, DTP, NCI, 2023)

System: NCI-H211 complex spheroid viability
Assay: Anticancer human tumor NCI-H211 cell line growth inhibition [LSD1];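 note: luminescent viability read after seven days of drug exposure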;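 for viability, T/C: 100% = DMSO vehicle control viability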
Conditions: for IC50: curve of first compound; for viability, T/C: stronger effect = lower value
Outline: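 Complex spheroids of tumor cells with HUVEC and human MSCs, exposed to iadademstat combined with other agents. Each agent tested in half-log steps from near clinical Cmax (else 10 microM top), DMSO ≤0.25%.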

[1] = second compound 0.1 µM, first compound 0.0316 µM
[2] = second compound 0.1 µM, first compound 0.1 µM
[3] = second compound 0.1 µM, first compound 0.316 µM
[4] = second compound 0.1 µM, first compound 1 µM
[5] = second compound 0.1 µM, first compound 3.16 µM
[6] = second compound 0.1 µM, first compound 10 µM
[7] = second compound 0.316 µM, first compound 0.0316 µM
[8] = second compound 0.316 µM, first compound 0.1 µM
[9] = second compound 0.316 µM, first compound 0.316 µM
[10] = second compound 0.316 µM, first compound 1 µM
[11] = second compound 0.316 µM, first compound 3.16 µM
[12] = second compound 0.316 µM, first compound 10 µM
[13] = second compound 1 µM, first compound 0.0316 µM
[14] = second compound 1 µM, first compound 0.1 µM
[15] = second compound 1 µM, first compound 0.316 µM
[16] = second compound 1 µM, first compound 1 µM
[17] = second compound 1 µM, first compound 3.16 µM
[18] = second compound 1 µM, first compound 10 µM
[19] = second compound 3.16 µM, first compound 0.0316 µM
[20] = second compound 3.16 µM, first compound 0.1 µM
[21] = second compound 3.16 µM, first compound 0.316 µM
[22] = second compound 3.16 µM, first compound 1 µM
[23] = second compound 3.16 µM, first compound 3.16 µM
[24] = second compound 3.16 µM, first compound 10 µM
[25] = second compound 10 µM, first compound 0.0316 µM
[26] = second compound 10 µM, first compound 0.1 µM
[27] = second compound 10 µM, first compound 0.316 µM
[28] = second compound 10 µM, first compound 1 µM
[29] = second compound 10 µM, first compound 3.16 µM
[30] = second compound 10 µM, first compound 10 µM

| Compound | IC50 (second compound 0.1 µM) [µM] | IC50 (second compound 0.316 µM) [µM] | IC50 (second compound 1 µM) [µM] | IC50 (second compound 3.16 µM) [µM] | IC50 (second compound 10 µM) [µM] | viability, T/C [1] [%] | viability, T/C [2] [%] | viability, T/C [3] [%] | viability, T/C [4] [%] | viability, T/C [7] [%] | viability, T/C [8] [%] | viability, T/C [9] [%] | viability, T/C [10] [%] | viability, T/C [13] [%] | viability, T/C [14] [%] | viability, T/C [15] [%] | viability, T/C [16] [%] | viability, T/C [19] [%] | viability, T/C [20] [%] | viability, T/C [21] [%] | also measured |
| --- | --- | --- | --- | --- | --- | --- | --- | --- | --- | --- | --- | --- | --- | --- | --- | --- | --- | --- | --- | --- | --- |
| CC(C)c1c(-c2ccccc2)nc2c(C#N)c[nH]n2c1=O + NC1CC1c1ccc(-c2cccc(O)c2)cc1 | 6.12 | 6.66 | 2.93 | 6.42 | 3.8 | 86.7 | 66.5 | 70.5 | 66 | 73.7 | 75.5 | 69.9 | 61.9 | 74.3 | 64.2 | 63.4 | 69.8 | 83.6 | 57.1 | 74.8 | viability, T/C [5]: 54.9%; viability, T/C [6]: 45.3%; viability, T/C [11]: 63.1%; viability, T/C [12]: 43.9%; viability, T/C [17]: 48.7%; viability, T/C [18]: 37.5%; viability, T/C [22]: 63.5%; viability, T/C [23]: 59.6%; viability, T/C [24]: 44.3%; viability, T/C [25]: 52.1%; viability, T/C [26]: 62.4%; viability, T/C [27]: 64.5%; viability, T/C [28]: 58.8%; viability, T/C [29]: 47.2%; viability, T/C [30]: 41.7% |
| CC1COCCN1c1cc(-c2ccnn2C)c2ccnc(-c3ccn[nH]3)c2n1 (stereo not given) + NC1CC1c1ccc(-c2cccc(O)c2)cc1 | 0.00378 | 0.00351 | < 0.00316 | < 0.00316 | < 0.00316 | 6.31 | 4.68 | 3.56 | 3.19 | 6.09 | 4.56 | 4.43 | 4.27 | 6.6 | 4.61 | 7.13 | 4.1 | 6.53 | 4.92 | 4.52 | viability, T/C (second compound 0.1 µM, first compound 0.00316 µM): 56.3%; viability, T/C (second compound 0.1 µM, first compound 0.01 µM): 16.8%; viability, T/C (second compound 0.316 µM, first compound 0.00316 µM): 53.6%; viability, T/C (second compound 0.316 µM, first compound 0.01 µM): 14%; viability, T/C (second compound 1 µM, first compound 0.00316 µM): 47.7%; viability, T/C (second compound 1 µM, first compound 0.01 µM): 16.8%; viability, T/C (second compound 3.16 µM, first compound 0.00316 µM): 43.6%; viability, T/C (second compound 3.16 µM, first compound 0.01 µM): 14.1%; viability, T/C [22]: 4.59%; viability, T/C (second compound 10 µM, first compound 0.00316 µM): 34.5%; viability, T/C (second compound 10 µM, first compound 0.01 µM): 14.5%; viability, T/C [25]: 7.33%; viability, T/C [26]: 4.8%; viability, T/C [27]: 4.76%; viability, T/C [28]: 6.03% |
| COc1ccc([C@@H](O)c2cc(-c3ncnc4cc(N5CCOCC5)ccc34)c(F)cc2Cl)nn1 + NC1CC1c1ccc(-c2cccc(O)c2)cc1 | 4.47 | 4.05 | 3.57 | 2.49 | < 0.0316 | 62 | 63.6 | 75 | 89.8 | 59.7 | 52.7 | 62.2 | 73.5 | 67.3 | 67 | 72.2 | 76.8 | 54.5 | 53.1 | 59 | viability, T/C [5]: 65.8%; viability, T/C [6]: 13.6%; viability, T/C [11]: 59.9%; viability, T/C [12]: 12.2%; viability, T/C [17]: 54.8%; viability, T/C [18]: 9.71%; viability, T/C [22]: 60.4%; viability, T/C [23]: 48.2%; viability, T/C [24]: 8.23%; viability, T/C [25]: 51.2%; viability, T/C [26]: 38.8%; viability, T/C [27]: 51.6%; viability, T/C [28]: 48%; viability, T/C [29]: 36.7%; viability, T/C [30]: 3.23% |
